# US10202658B2, “Methods for determining hypersusceptibility of HIV-1 to non-nucleoside reverse transcriptase inhibitors” (Monogram Biosciences, Inc., priority 2005, dated 2019)
# Tests used:
# Type in all cases: cell-based
# [1] = tested on: HIV-1, RT mutations: 2 NAMs; test: PhenoSense resistance test vector assay, clinical isolates with 2 NAMs; settings: share of samples designated hypersusceptible
# Protocol: (§1) In preferred embodiments, the phenotypic analysis of NNRTI hypersusceptibility is performed using PHENOSENSE™ (ViroLogic Inc., South San Francisco, Calif.). See Petropoulos et al., 2000, Antimicrob. Agents Chemother. 44:920-928; U.S. Pat. Nos. 5,837,464 and 6,242,187. PHENOSENSE™ is a phenotypic assay that achieves the benefits of phenotypic testing and overcomes the drawbacks of previous assays. Because the assay has been automated, PHENOSENSE™ provides high throughput methods under controlled conditions for determining NNRTI resistance, susceptibility, or hypersusceptibility of a large number of individual viral isolates.
# (§2) The assay can be performed by first co-transfecting host cells with RTV DNA and a plasmid that expresses the envelope proteins of another retrovirus, for example, amphotropic murine leukemia virus (MLV). Following transfection, viral particles can be harvested from the cell culture and used to infect fresh target cells in the presence of varying amounts of anti-viral drug(s). The completion of a single round of viral replication in the fresh target cells can be detected by the means for detecting replication contained in the vector. In a preferred embodiment, the completion of a single round of viral replication results in the production of luciferase. By monitoring the amount of, e.g., luciferase activity in the presence of the varying amounts of antiviral drug(s), a resistance curve can be constructed by plotting luciferase activity versus drug concentration. The susceptibility of an HIV, or population of HIV, can be determined by measuring the concentration of antiviral drug at which the luciferase activity detected is half-maximal. This number, the IC50, provides a standard and convenient measure of drug resistance.
# (§3) Patient-derived segment(s) corresponding to the HIV protease and reverse transcriptase coding regions were amplified by the reverse transcription-polymerase chain reaction method (RT-PCR) using viral RNA isolated from viral particles present in the plasma or serum of HIV-infected individuals as follows. […]
# [2] = tested on: HIV-1, RT mutations: T215Y and 2 TAMs and H208X; test: PhenoSense resistance test vector assay, clinical isolates with T215Y and 2 TAMs and H208X; settings: share of samples designated hypersusceptible
# Protocol: as §1, §2, §3
# [3] = tested on: HIV-1, RT mutations: T215Y and 2 TAMs and H208 wt; test: PhenoSense resistance test vector assay, clinical isolates with T215Y and 2 TAMs and H208 wt; settings: share of samples designated hypersusceptible
# Protocol: as §1, §2, §3
# [4] = tested on: HIV-1, RT mutations: T215Y and 2 TAMs and V118I; test: PhenoSense resistance test vector assay, clinical isolates with T215Y and 2 TAMs and V118I; settings: share of samples designated hypersusceptible
# Protocol: as §1, §2, §3
# [5] = tested on: HIV-1 NL4-3 SDM, K65R in reverse transcriptase; test: NNRTI susceptibility of site-directed mutant (SDM) bearing only K65R in NL4-3 background; settings: mean+/-SD of 18 replicates, p<0.00001 versus reference
# Protocol: as §1
# as §2, with “By monitoring the amount of, e.g., luciferase activity in the presence of the varying amounts of antiviral drug(s), a resistance curve can be constructed by plotting luciferase activity versus drug concentration.” left out, “This number, the IC50, provides a standard and convenient measure of drug resistance.” left out
# (§4) Resistance tests were carried out with resistance test vectors using two host cell types. […] The resistance test vector viral particles were then used to infect a second host cell (the target host cell) in which the expression of the indicator gene is measured.
# (§5) The amount of luciferase activity detected in infected cells is used as a direct measure of “infectivity,” i.e., the ability of the virus to complete a single round of replication. Thus, drug resistance or sensitivity can be determined by plotting the amount of luciferase activity produced by patient derived viruses in the presence of varying concentrations of the antiviral drug. […]
# [6] = tested on: HIV-1 NL4-3 SDM, M184V in reverse transcriptase; test: NNRTI susceptibility of site-directed mutant (SDM) bearing only M184V in NL4-3 background; settings: mean+/-SD of 17 replicates, p<0.00001 versus reference
# Protocol: as §1
# as §2, with “By monitoring the amount of, e.g., luciferase activity in the presence of the varying amounts of antiviral drug(s), a resistance curve can be constructed by plotting luciferase activity versus drug concentration.” left out, “This number, the IC50, provides a standard and convenient measure of drug resistance.” left out
# as §4, §5
# [7] = tested on: HIV-1 NL4-3 SDM, L74V in reverse transcriptase; test: NNRTI susceptibility of site-directed mutant (SDM) containing L74V in NL4-3 background; settings: relative to NL4-3
# Protocol: as §1
# as §2, with “By monitoring the amount of, e.g., luciferase activity in the presence of the varying amounts of antiviral drug(s), a resistance curve can be constructed by plotting luciferase activity versus drug concentration.” left out, “This number, the IC50, provides a standard and convenient measure of drug resistance.” left out
# as §4, §5
SMILES,% IC50 0.4 fold < WT [1] [%],% IC50 0.4 fold < WT [2] [%],% IC50 0.4 fold < WT [3] [%],% IC50 0.4 fold < WT [4] [%],FC (fold change in IC50) [5],FC (fold change in IC50) [6],FC (fold change in IC50) [7]
"CC(C)Nc1cccnc1N1CCN(C(=O)c2cc3cc(NS(C)(=O)=O)ccc3[nH]2)CC1 [DLV, delavirdine]",30.1,90.9,68.7,63.8,0.54+/−0.03,0.65+/−0.05,0.68+/−0.06
"Cc1ccnc2c1NC(=O)c1cccnc1N2C1CC1 [NVP, nevirapine]",39.8,9.1,34.8,27.1,0.53+/−0.05,0.67+/−0.05,0.59+/−0.06
"O=C1Nc2ccc(Cl)cc2[C@@](C#CC2CC2)(C(F)(F)F)O1 [EFV, efavirenz]",39.8,54.5,55.1,39.6,0.56+/−0.02,0.65+/−0.03,0.67+/−0.02
